# Target: T1, human serum albumin (HSA) (Homo sapiens, UniProt P02768)
# T1 construct: gene ALB
# Assay: X-ray crystal structure at […] Å (seven molecules seen in the HSA Fe complex adduct)
# Type: binding
# T1 sequence (P02768 25-609): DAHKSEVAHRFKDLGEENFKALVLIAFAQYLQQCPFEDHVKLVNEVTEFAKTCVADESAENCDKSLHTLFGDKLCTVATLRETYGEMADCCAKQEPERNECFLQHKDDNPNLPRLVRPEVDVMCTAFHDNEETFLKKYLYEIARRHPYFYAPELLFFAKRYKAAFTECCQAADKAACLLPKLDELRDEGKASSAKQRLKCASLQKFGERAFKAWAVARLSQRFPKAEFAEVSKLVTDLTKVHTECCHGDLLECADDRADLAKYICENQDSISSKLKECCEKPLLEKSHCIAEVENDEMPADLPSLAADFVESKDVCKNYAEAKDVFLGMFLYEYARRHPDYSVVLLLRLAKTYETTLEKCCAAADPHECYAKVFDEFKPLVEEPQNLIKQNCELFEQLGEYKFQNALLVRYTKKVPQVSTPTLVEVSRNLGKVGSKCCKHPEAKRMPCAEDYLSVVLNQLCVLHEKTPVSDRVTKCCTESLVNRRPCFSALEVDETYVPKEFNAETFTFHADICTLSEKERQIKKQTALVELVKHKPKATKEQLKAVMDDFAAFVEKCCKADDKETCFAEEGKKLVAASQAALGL
structure (smiles),measurement,value
"CCCCCCCCCCCCCCCC(=O)O [PA, palmitic acid]",X-ray crystal structure at 2.4 Å (seven molecules seen in the HSA Fe complex add),seven palmitic acid (PA) molecules are present in the subdomains of I–III
